Experimental data reported in paper PMC9837035 (Nature Communications, 2023).
Converted amounts (≈) assume the structure as drawn. “And” between values parts separate entries of the source, which are not always exact repeats. Identical values can stand only once. Like-named read-outs stand apart in the source and are kept apart here.

How the values were obtained:
[1] = Cell viability assay (WST-8), HUDEP-2; assay type: cell-based, human; settings: human, HUDEP-2 cells, control (0 μM) = 100
Method: (§1) A WST-8 (2-(2-methoxy-4-nitrophenyl)-3-(4-nitrophenyl)-5-(2,4-disulfophenyl)-2H-tetrazolium) assay using a Cell Counting Kit-8 (DOJINDO) was performed to measure cell viability using an EnSpire microplate reader (PerkinElmer).

HUDEP-2 cells = experiment: Cell viability assay (WST-8), HUDEP-2; assay type: cell-based, human; settings: for cell viability in HUDEP-2 cells: control (0 μM) = 100
Method: as §1

MLL4 [2] = experiment: Radioisotope-based methyltransferase assay (selectivity); settings: MLL4, 1 μM SAM
MLL4, sequence (Q9UMN6 2490-2715): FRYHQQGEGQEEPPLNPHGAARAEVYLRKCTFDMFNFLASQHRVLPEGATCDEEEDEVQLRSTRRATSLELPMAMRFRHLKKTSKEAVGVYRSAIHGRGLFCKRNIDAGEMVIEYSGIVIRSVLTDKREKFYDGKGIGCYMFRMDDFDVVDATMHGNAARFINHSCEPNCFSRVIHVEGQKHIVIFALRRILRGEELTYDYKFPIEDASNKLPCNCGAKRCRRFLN
MLL4, sequence (Q9UBL3 whole entry, further chain): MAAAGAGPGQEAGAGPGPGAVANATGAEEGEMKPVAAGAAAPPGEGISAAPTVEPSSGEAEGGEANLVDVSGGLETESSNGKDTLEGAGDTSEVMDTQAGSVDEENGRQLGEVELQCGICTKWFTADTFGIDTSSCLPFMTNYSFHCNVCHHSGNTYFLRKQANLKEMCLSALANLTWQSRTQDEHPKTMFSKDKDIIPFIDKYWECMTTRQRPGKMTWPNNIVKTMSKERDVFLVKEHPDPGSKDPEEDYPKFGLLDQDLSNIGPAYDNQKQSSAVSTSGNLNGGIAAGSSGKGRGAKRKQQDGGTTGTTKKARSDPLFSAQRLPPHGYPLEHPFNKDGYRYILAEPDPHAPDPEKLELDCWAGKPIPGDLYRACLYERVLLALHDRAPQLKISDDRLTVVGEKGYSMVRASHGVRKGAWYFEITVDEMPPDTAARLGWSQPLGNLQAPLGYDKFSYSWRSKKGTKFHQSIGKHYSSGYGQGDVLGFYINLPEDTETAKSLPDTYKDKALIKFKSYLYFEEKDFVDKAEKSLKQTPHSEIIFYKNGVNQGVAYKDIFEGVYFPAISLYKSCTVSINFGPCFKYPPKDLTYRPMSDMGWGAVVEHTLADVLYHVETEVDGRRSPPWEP
MLL4, sequence (Q9C005 whole entry, further chain): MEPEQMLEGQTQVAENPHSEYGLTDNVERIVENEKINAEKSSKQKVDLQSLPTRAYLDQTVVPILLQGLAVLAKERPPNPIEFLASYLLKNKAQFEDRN
MLL4, sequence (Q15291 whole entry, further chain): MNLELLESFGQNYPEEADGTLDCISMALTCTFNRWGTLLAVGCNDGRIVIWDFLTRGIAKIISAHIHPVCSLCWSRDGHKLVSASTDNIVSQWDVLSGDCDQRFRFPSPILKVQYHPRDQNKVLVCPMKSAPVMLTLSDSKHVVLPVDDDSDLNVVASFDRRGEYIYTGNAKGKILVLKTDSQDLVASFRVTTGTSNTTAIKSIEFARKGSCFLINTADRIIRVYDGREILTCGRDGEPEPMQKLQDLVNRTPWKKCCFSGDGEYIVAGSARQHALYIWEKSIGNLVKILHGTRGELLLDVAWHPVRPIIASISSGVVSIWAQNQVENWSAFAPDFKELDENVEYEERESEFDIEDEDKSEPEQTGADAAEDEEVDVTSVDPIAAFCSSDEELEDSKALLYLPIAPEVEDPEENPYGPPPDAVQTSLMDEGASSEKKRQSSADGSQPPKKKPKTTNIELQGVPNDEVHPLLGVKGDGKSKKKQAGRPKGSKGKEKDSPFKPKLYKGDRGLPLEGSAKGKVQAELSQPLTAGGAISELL

PRMT8 = PRMT8 (Homo sapiens, UniProt Q9NR22); experiment: as above
PRMT8, sequence (Q9NR22 whole entry): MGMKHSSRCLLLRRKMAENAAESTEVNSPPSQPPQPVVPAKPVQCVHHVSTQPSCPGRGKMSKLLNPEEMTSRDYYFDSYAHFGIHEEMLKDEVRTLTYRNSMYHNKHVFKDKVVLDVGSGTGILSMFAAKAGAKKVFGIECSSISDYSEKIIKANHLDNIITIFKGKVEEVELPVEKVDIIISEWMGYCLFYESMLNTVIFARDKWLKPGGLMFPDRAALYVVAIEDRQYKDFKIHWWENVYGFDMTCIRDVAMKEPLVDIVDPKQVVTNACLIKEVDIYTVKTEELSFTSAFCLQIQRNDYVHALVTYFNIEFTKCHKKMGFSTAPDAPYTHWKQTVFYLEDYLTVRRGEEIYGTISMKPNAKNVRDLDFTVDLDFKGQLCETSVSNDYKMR

Aqueous solubility = assay type: physicochemical; design: Solubility in PBS (pH = 7.4): unit: uM; settings: for solubility at 1 h: phosphate buffer
Method: The direct UV kinetic solution method was performed in duplicate. A 10 mM DMSO solution of compound was added to a microtube containing aqueous pH 7.4 or pH 6.8 phosphate buffer solution (maximum concentration: 200 μM). The solution mixture was vigorously shaken at ambient temperature for 1 h. The precipitate was removed by centrifugal separation, and the UV absorbance of the supernatant and the standard solution prepared by the test compound for calibration were measured in duplicate using a 96-well UV plate reader, SPECTRA MAX190 (Molecular Devices).

PRMT7 = PRMT7 (Homo sapiens, UniProt Q9NVM4); experiment: Radioisotope-based methyltransferase assay (selectivity)
PRMT7, sequence (Q9NVM4 whole entry): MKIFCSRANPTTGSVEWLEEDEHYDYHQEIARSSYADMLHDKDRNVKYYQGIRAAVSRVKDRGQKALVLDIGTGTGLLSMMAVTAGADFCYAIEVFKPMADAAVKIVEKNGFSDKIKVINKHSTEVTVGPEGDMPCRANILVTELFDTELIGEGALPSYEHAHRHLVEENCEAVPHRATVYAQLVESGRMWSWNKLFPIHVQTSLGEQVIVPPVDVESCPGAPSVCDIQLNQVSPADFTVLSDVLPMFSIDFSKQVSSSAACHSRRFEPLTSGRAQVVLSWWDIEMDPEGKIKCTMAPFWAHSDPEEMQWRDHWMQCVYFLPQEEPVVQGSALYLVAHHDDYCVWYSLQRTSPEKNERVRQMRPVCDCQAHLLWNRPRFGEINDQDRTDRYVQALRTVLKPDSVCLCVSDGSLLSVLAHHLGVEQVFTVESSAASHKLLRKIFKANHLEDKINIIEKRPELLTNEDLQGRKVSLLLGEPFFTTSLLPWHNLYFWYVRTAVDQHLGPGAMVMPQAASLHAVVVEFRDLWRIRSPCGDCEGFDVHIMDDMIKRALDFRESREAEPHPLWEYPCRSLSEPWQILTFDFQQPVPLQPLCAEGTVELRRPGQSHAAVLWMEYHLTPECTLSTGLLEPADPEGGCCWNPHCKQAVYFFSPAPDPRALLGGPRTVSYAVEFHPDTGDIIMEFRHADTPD

[3] = Liver microsomal stability assay, rat; assay type: in vitro ADME; settings: for Metabolic stability, % remaining of RK-701: Rat
Method: [Human/Rat] Liver microsome analyses (human, rat) were performed in triplicate by the Sumika Chemical Analysis Service (SCAS) according to the standard protocols. […] [Dog/Monkey] Liver microsome analyses (dog, monkey) were performed in duplicate by RIKEN according to the same protocols as SCAS.

[4] = system: CHD3 and CHD4 occupancy at the BGLT3 gene locus; experiment: ChIP-qPCR with antibodies against CHD3 or CHD4 in HUDEP-2 cells; assay type: cell-based, human; settings: HUDEP-2, 1 μM, 4 days
Method: A total of 0.5–1 × 10^6 cells were cross-linked with 1% formaldehyde for 10 min at room temperature and the reaction was quenched with 250 mM glycine. Cross-linked cells were then lysed with buffer 1 (15 mM Tris-HCl (pH 7.5), 60 mM KCl, 15 mM NaCl, 5 mM MgCl2, 0.1 mM EGTA, 300 mM sucrose, […], 1 mM phenylmethanesulfonyl fluoride (PMSF), 0.5% NP40) and incubated on ice for 10 min. After centrifugation, the pellet was re-suspended in buffer 2 (15 mM Tris-HCl (pH 7.5), 60 mM KCl, 15 mM NaCl, 5 mM MgCl2, 0.1 mM EGTA, 1.2 M sucrose, […], 1 mM PMSF). After centrifugation, the pellet was then re-suspended in MNase buffer (50 mM Tris-HCl (pH 7.5), 1 mM CaCl2, 4 mM MgCl2, 320 mM sucrose, 1 mM PMSF) and digested with 100 U of micrococcal nuclease (Takara) at 37 °C for 15 min. […] The samples were analyzed by qPCR. […] ChIP-seq analysis were analyzed Cutadapt (V1.9.1) for QC, FastQC (V0.10.1) for QC assessment, Bowtie (V2.1.0) for mapping, strand cross-correlation (SCC) for ChIP quality assessment, MACS2 for peak calling, and R package ChIPpeakAnno for Peak annotated.

MLL4 [5] = target: MLL4 (Homo sapiens, UniProt Q9UMN6); experiment: Radioisotope-based methyltransferase assay (selectivity); settings: MLL4, 1 μM SAM
MLL4 (Homo sapiens, UniProt Q9UMN6), sequence (Q9UMN6 2490-2715): as the sequence (Q9UMN6 2490-2715) above
MLL4 (Homo sapiens, UniProt Q9UMN6), sequence (Q9UBL3 whole entry, further chain): as the sequence (Q9UBL3 whole entry, further chain) above
MLL4 (Homo sapiens, UniProt Q9UMN6), sequence (Q9C005 whole entry, further chain): as the sequence (Q9C005 whole entry, further chain) above
MLL4 (Homo sapiens, UniProt Q9UMN6), sequence (Q15291 whole entry, further chain): as the sequence (Q15291 whole entry, further chain) above

PRMT6 = PRMT6 (Homo sapiens, UniProt Q96LA8); experiment: biochemical
PRMT6, sequence (Q96LA8 whole entry): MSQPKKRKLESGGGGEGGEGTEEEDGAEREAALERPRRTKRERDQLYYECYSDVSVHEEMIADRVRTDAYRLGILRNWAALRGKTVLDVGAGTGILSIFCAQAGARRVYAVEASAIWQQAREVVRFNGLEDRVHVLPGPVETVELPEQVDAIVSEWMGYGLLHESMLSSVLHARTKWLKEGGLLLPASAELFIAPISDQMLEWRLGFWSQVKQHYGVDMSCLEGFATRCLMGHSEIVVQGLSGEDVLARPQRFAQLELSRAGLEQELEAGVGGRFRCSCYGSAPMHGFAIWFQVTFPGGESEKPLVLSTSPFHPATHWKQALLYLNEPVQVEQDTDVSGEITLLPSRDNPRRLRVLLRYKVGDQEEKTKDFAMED

Question: What does the source list for `Cc1c(C(=O)NC(CCC2CC2)C(=O)Nc2ccc(C#N)cc2)[nH]c2c1C(=O)CC(C)(C)C2` (stereo not drawn) [RK-701]?
Answer: viability at 0.0137174 μM ([1]; 0.0137174 μM): 99.9%; viability at 0.123457 μM ([1]; 0.123457 μM): 97.4%; viability at 0.37037 μM ([1]; 0.37037 μM): 99.9%; viability at 1.11111 μM ([1]; 1.11111 μM): 105%; viability at 3.33333 μM ([1]; 3.33333 μM): 94.3%; viability at 10 μM ([1]; 10 μM): 77.4%; cell viability in HUDEP-2 cells (HUDEP-2 cells; 0.00457247 μM): 120.908 and 97.8824 and 118.228; cell viability in HUDEP-2 cells (HUDEP-2 cells; 0.0137174 μM): 97.2549 and 110.051; cell viability in HUDEP-2 cells (HUDEP-2 cells; 0.0411523 μM): 112.451 and 91.2941 and 106.985; cell viability in HUDEP-2 cells (HUDEP-2 cells; 0.123457 μM): 96.9412 and 105.622; cell viability in HUDEP-2 cells (HUDEP-2 cells; 0.37037 μM): 97.8824 and 103.918; cell viability in HUDEP-2 cells (HUDEP-2 cells; 1.11111 μM): 96.3137 and 96.4225; cell viability in HUDEP-2 cells (HUDEP-2 cells; 3.33333 μM): 88.1569 and 84.8382; cell viability in HUDEP-2 cells (HUDEP-2 cells; 10 μM): 78.4314 and 79.046; cytotoxic effect on viability (HUDEP-2 cells; HUDEP-2, 3 days): essentially no cytotoxic effect; IC50 (MLL4 [2]): > 100000 nM; IC50 (PRMT8): > 100000 nM; Solubility in PBS (pH = 6.8) (Aqueous solubility; PBS pH = 6.8, replicate values): 31.5 and 23.5 and 26.4; Solubility in PBS (pH = 7.4) (Aqueous solubility; PBS pH = 7.4, replicate values): 10.4542 and 12.4313 and 11.5534 and 10.9261 and 15.3115 and 10.1928 and 7.42 and 8.729; solubility at 1 h (Aqueous solubility; pH 6.8, PBS pH = 6.8, replicate values, read-out: Solubility in PBS (pH = 6.8)): 23.9 µM (≈ 10.7 µg/mL); solubility at 1 h (Aqueous solubility; pH 6.8, pH6.8, read-out: Solubility in PBS): 26.3 ± 3.2 µM (≈ 11.7 µg/mL); solubility at 1 h (Aqueous solubility; pH 7.4, pH7.4, read-out: Solubility in PBS): 10.9 ± 2.2 µM (≈ 4.87 µg/mL); IC50 (PRMT7): > 100000 nM; Metabolic stability, % remaining of RK-701 ([3]; Time 5, replicate values): 89% and 81.8%; Metabolic stability, % remaining of RK-701 ([3]; Time 10, replicate values): 86.2% and 80.2%; Metabolic stability, % remaining of RK-701 ([3]; Time 20, replicate values): 63% and 58.9%; Metabolic stability, % remaining of RK-701 ([3]; Time 30, replicate values): 53.3% and 55.8%; Metabolic stability, % remaining of RK-701 ([3]; Time 60, replicate values): 36.1% and 33.5%; remaining at 5 min, 1 µM ([3]; rat, liver microsomes, Metabolic stability, % remaining of RK-701, Rat, Time 5, replicate values): 89.1%; remaining at 10 min, 1 µM ([3]; rat, liver microsomes, Metabolic stability, % remaining of RK-701, Rat, Time 10, replicate values): 83.1%; remaining at 20 min, 1 µM ([3]; rat, liver microsomes, Metabolic stability, % remaining of RK-701, Rat, Time 20, replicate values): 61.7%; remaining at 60 min, 1 µM ([3]; rat, liver microsomes, Metabolic stability, % remaining of RK-701, Rat, Time 60, replicate values): 35.6%; microsomal CLint at 1 μM ([3]; rat, liver microsomes, read-out: Metabolic stability in liver microsomes CLint): 33 µL/min/mg; occupancy of CHD4 on the BGLT3 gene locus [4]: significantly decreased

Question: For `Nc1ncnc2c1ncn2[C@@H]1O[C@H](CSCC[C@H](N)C(=O)O)[C@@H](O)[C@H]1O` [SAH, S-(5'-Adenosyl)-L-homocysteine, reference compound], which IC50 (MLL4 [5]) is on record?
Answer: Its IC50 is 1100 nM.

Question: And the IC50 (PRMT6)?
Answer: Its IC50 is 408 nM.
